SMILES strings stand for the structures.

The target in this experiment is T1, PDE10A enzyme (Homo sapiens, UniProt Q9Y233).
T1 construct: made in house; host or cells: E. coli BL21(DE3)
T1 sequence (Q9Y233 716-1055): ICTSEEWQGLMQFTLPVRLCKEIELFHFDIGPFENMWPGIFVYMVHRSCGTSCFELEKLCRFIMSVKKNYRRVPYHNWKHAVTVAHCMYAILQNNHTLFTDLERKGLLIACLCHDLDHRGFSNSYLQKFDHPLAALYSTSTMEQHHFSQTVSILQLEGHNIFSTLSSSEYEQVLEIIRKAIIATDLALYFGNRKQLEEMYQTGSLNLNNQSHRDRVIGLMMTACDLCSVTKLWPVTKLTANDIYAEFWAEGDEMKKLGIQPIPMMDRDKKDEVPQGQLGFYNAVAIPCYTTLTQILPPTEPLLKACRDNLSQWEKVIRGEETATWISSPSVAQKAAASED
Put plainly: PDE10A inhibition assay, SPA. Type of experiment: biochemical. To be noted: column head 2,1334003; unit inferred, nM. The protocol: Active PDE10A enzyme is prepared in a number of ways for use in PDE assays (Loughney, K. et al. Gene 1999, 234, 109-117; Fujishige, K. et al. Eur J Biochem. 1999, 266, 1118-1127 and Soderling, S. et al. Proc. Natl. Acad. Sci. 1999, 96, 7071-7076). PDE10A can be expressed as full-length proteins or as truncated proteins, as long as they express the catalytic domain. PDE10A can be prepared in different cell types, for example insect cells or E. coli. An example of a method to obtain catalytically active PDE10A is as follows: The catalytic domain of human PDE10A (amino acids 440-779 from the sequence with accession number NP 006652) is amplified from total human brain total RNA by standard RT-PCR and is cloned into the BamH1 and Xho1 sites of the pET28a vector (Novagen). Expression in coli is performed according to standard protocols. Briefly, the expression plasmids are transformed into the BL21(DE3) E. coli strain, and 50 mL cultures inoculated with the cells allowed to grow to an OD600 of 0.4-0.6 before protein expression is induced with 0.5 mM IPTG. Following induction, the cells are incubated overnight at room temperature, after which the cells are collected by centrifugation. Cells expressing PDE10A are resuspended in 12 mL (50 mM TRIS-HCl-pH8.0, 1 mM MgCl2 and protease inhibitors). The cells are lysed by sonication, and after all cells are lysed, TritonX100 is added according to Novagen protocols.
PDE10A and Pde3A assays can for example be performed as follows: PDE10A and Pde3A assays are performed in 60 uL samples containing a fixed amount of the relevant PDE enzyme (sufficient to convert 20-25% of the cyclic nucleotide substrate), a buffer (50 mM HEPES7.6; 10 mM MgCl2; 0.02% Tween20), 0.1 mg/ml BSA, 225 pCi of ^3H-labelled cyclic nucleotide substrate, tritium labeled cAMP to a final concentration of 5 nM and varying amounts of inhibitors. Reactions are initiated by addition of the cyclic nucleotide substrate, and reactions are allowed to proceed for one hr at room temperature before being terminated through mixing with 15 uL 8 mg/mL yttrium silicate SPA beads (Amersham). The beads are allowed to settle for one hr in the dark before the plates are counted in a Wallac 1450 Microbeta counter. The measured signal can be converted to activity relative to an uninhibited control (100%) and IC50 values can be calculated using the Xlfit extension to EXCEL.
For `COc1cccc(C2CN(c3ncc(C#N)c4cc(OC)c(OC)cc34)CCN2)c1` (single isomer, unassigned; (+)) [Compound 23, (+)-6,7-Dimethoxy-1-[3-(3-methoxy-phenyl)-piperazin-1-yl]-isoquinoline-4-carbonitrile], the IC50 is 1300 nM.

Molecule `COc1cccc(C2CN(c3ncc(C#N)c4cc(OC)c(OC)cc34)CCN2)c1` (single isomer, unassigned; (-)) [Compound 24, (−)-6,7-Dimethoxy-1-[3-(3-methoxy-phenyl)-piperazin-1-yl]-isoquinoline-4-carbonitrile] yielded an IC50 of 27 nM.

Take `COc1cc2c(C#N)cnc(N3CCNC(c4ccc(F)cc4)C3)c2cc1OC` (centres unmarked) [Compound 1, 1-[3-(4-Fluoro-phenyl)-piperazin-1-yl]-6,7-dimethoxy-isoquinoline-4-carbonitrile]: half-maximal inhibition (IC50) was put at 80 nM.

With `COc1cccc(C2CN(c3ncc(C#N)c4cc(OC)c(OC)cc34)CCN2)c1` (centres unmarked) [Compound 2, 6,7-Dimethoxy-1-[3-(3-methoxy-phenyl)-piperazin-1-yl]-isoquinoline-4-carbonitrile], the IC50 came to 320 nM.

Turning to `COc1cccc(C2CN(c3nc(C)c(C#N)c4cc(OC)c(OC)cc34)CCN2)c1` (centres unmarked) [Compound 3, 6,7-Dimethoxy-1-[3-(3-methoxy-phenyl)-piperazin-1-yl]-3-methyl-isoquinoline-4-carbonitrile], half-maximal inhibition (IC50) required 240 nM.

Take `COc1cc2c(C#N)cnc(N3CCNC(c4cccc5ccccc45)C3)c2cc1OC` (centres unmarked) [Compound 4, 6,7-Dimethoxy-1-(3-naphthalen-1-yl-piperazin-1-yl)-isoquinoline-4-carbonitrile]: half-maximal inhibition (IC50) was put at 78 nM.

On to `COc1ccc(C2CN(c3ncc(C#N)c4cc(OC)c(OC)cc34)CCN2)cc1` (centres unmarked) [Compound 5, 6,7-Dimethoxy-1-[3-(4-methoxy-phenyl)-piperazin-1-yl]-isoquinoline-4-carbonitrile], for which the IC50 amounted to 54 nM.

`COc1cc2c(C#N)cnc(N3CCNC(c4ccccc4OC)C3)c2cc1OC` (centres unmarked) [Compound 6, 6,7-Dimethoxy-1-[3-(2-methoxy-phenyl)-piperazin-1-yl]-isoquinoline-4-carbonitrile] had an IC50 of 420 nM.

`COc1cc2c(C#N)cnc(N3CCNC(c4ccc(N(C)C)cc4)C3)c2cc1OC` (centres unmarked) [Compound 7, 1-[3-(4-Dimethylamino-phenyl)-piperazin-1-yl]-6,7-dimethoxy-isoquinoline-4-carbonitrile] returned an IC50 of 76 nM.

`COc1cc2c(C#N)cnc(N3CCNC(c4ccc5c(c4)OCO5)C3)c2cc1OC` (centres unmarked) [Compound 8, 1-(3-Benzo[1,3]dioxol-5-yl-piperazin-1-yl)-6,7-dimethoxy-isoquinoline-4-carbonitrile] gave an IC50 of 81 nM.

`COc1cc2c(C#N)cnc(N3CCNC(c4cccc([N+](=O)[O-])c4)C3)c2cc1OC` (centres unmarked) [Compound 9, 6,7-Dimethoxy-1-[3-(3-nitro-phenyl)-piperazin-1-yl]-isoquinoline-4-carbonitrile] gave an IC50 of 120 nM.

With `COc1cc2c(C#N)cnc(N3CCNC(c4ccc5ccccc5c4)C3)c2cc1OC` (centres unmarked) [Compound 10, 6,7-Dimethoxy-1-(3-naphthalen-2-yl-piperazin-1-yl)-isoquinoline-4-carbonitrile], inhibition was half-maximal at 73 nM (IC50).

On to `COc1cc(OC)cc(C2CN(c3ncc(C#N)c4cc(OC)c(OC)cc34)CCN2)c1` (centres unmarked) [Compound 11, 1-[3-(3,5-Dimethoxy-phenyl)-piperazin-1-yl]-6,7-dimethoxy-isoquinoline-4-carbonitrile], for which the IC50 was found to be 41 nM.

`COc1ccc(OC)c(C2CN(c3ncc(C#N)c4cc(OC)c(OC)cc34)CCN2)c1` (centres unmarked) [Compound 12, 1-[3-(2,5-Dimethoxy-phenyl)-piperazin-1-yl]-6,7-dimethoxy-isoquinoline-4-carbonitrile] registered an IC50 of 42 nM.

`COc1cc2c(C#N)cnc(N3CCNC(c4ccc(C(F)(F)F)cc4)C3)c2cc1OC` (centres unmarked) [Compound 13, 6,7-Dimethoxy-1-[3-(4-trifluoromethyl-phenyl)-piperazin-1-yl]-isoquinoline-4-carbonitrile] had an IC50 of 160 nM.

Molecule `COc1cc2c(C#N)cnc(N3CCNC(c4cc(Cl)ccc4Cl)C3)c2cc1OC` (centres unmarked) [Compound 14, 1-[3-(2,5-Dichloro-phenyl)-piperazin-1-yl]-6,7-dimethoxy-isoquinoline-4-carbonitrile] registered an IC50 of 650 nM.

Consider `COc1cc2c(C#N)cnc(N3CCNC(c4ccc(Cl)cc4Cl)C3)c2cc1OC` (centres unmarked) [Compound 15, 1-[3-(2,4-Dichloro-phenyl)-piperazin-1-yl]-6,7-dimethoxy-isoquinoline-4-carbonitrile], for which it took 520 nM to reach half-maximal inhibition (IC50).

Molecule `COc1cc2c(C#N)cnc(N3CCNC(c4ccc(N5CCOCC5)cc4)C3)c2cc1OC` (centres unmarked) [Compound 16, 6,7-Dimethoxy-1-[3-(4-morpholin-4-yl-phenyl)-piperazin-1-yl]-isoquinoline-4-carbonitrile] yielded an IC50 of 76 nM.

On to `COc1cc2c(C#N)cnc(N3CCNC(c4cc(F)c(Cl)cc4Cl)C3)c2cc1OC` (centres unmarked) [Compound 17, 1-[3-(2,4-Dichloro-5-fluoro-phenyl)-piperazin-1-yl]-6,7-dimethoxy-isoquinoline-4-carbonitrile], for which the IC50 came out at 1000 nM.

Molecule `COc1ccc(C2CN(c3ncc(C#N)c4cc(OC)c(OC)cc34)CCO2)cc1` (centres unmarked) [Compound 18, 6,7-Dimethoxy-1-[2-(4-methoxy-phenyl)-morpholin-4-yl]-isoquinoline-4-carbonitrile] gave an IC50 of 97 nM.

In turn, `COc1cc2c(C#N)cnc(N3CCOC(c4ccc(C)cc4)C3)c2cc1OC` (centres unmarked) [Compound 19, 6,7-Dimethoxy-1-(2-p-tolyl-morpholin-4-yl)-isoquinoline-4-carbonitrile] yielded an IC50 of 580 nM.

`COc1cc2c(C#N)cnc(N3CCOC(c4ccc(Cl)cc4)C3)c2cc1OC` (centres unmarked) [Compound 20, 1-[2-(4-Chloro-phenyl)-morpholin-4-yl]-6,7-dimethoxy-isoquinoline-4-carbonitrile] displayed an IC50 of 800 nM.

Take `COc1cc2c(C#N)cnc(N3CCOC(c4ccccc4Cl)C3)c2cc1OC` (centres unmarked) [Compound 21, 1-[2-(2-Chloro-phenyl)-morpholin-4-yl]-6,7-dimethoxy-isoquinoline-4-carbonitrile]: the IC50 came to 530 nM.

Turning to `COc1cc2c(C#N)cnc(N3CCOC(c4ccc(C(F)(F)F)cc4)C3)c2cc1OC` (centres unmarked) [Compound 22, 6,7-Dimethoxy-1-[2-(4-trifluoromethyl-phenyl)-morpholin-4-yl]-isoquinoline-4-carbonitrile], the IC50 came to 1600 nM.

Regarding `COc1cc2c(C#N)cnc(N3CCNC(c4ccc(C)cc4)C3)c2cc1OC` (centres unmarked) [Compound 25, 6,7-Dimethoxy-1-(3-p-tolyl-piperazin-1-yl)-isoquinoline-4-carbonitrile], half-maximal inhibition (IC50) required 300 nM.

In turn, `COc1cc2c(C#N)cnc(N3CCNC(c4cccc(Cl)c4)C3)c2cc1OC` (centres unmarked) [Compound 26, 1-[3-(3-Chloro-phenyl)-piperazin-1-yl]-6,7-dimethoxy-isoquinoline-4-carbonitrile] registered an IC50 of 390 nM.

For the molecule `COc1cc2c(C#N)cnc(N3CCNC(c4ccc(Br)cc4)C3)c2cc1OC` (centres unmarked) [Compound 27, 1-[3-(4-Bromo-phenyl)-piperazin-1-yl]-6,7-dimethoxy-isoquinoline-4-carbonitrile], the concentration for half-maximal inhibition (IC50) is 510 nM.

The molecule `COc1ccc2cc(C3CN(c4ncc(C#N)c5cc(OC)c(OC)cc45)CCN3)ccc2c1` (centres unmarked) [Compound 28, 6,7-Dimethoxy-1-[3-(6-methoxy-naphthalen-2-yl)-piperazin-1-yl]-isoquinoline-4-carbonitrile] had a half-maximal inhibitory concentration (IC50) of 330 nM.

With `COc1cc2c(C#N)cnc(N3CCSC(c4ccccc4)C3)c2cc1OC` (centres unmarked) [Compound 29, 6,7-Dimethoxy-1-(2-phenyl-thiomorpholin-4-yl)-isoquinoline-4-carbonitrile], the IC50 is 2500 nM.

The molecule `COc1cc2c(C#N)cnc(N3CCNC(c4ccc(Cl)cc4)C3)c2cc1OC` (centres unmarked) [Compound 30, 1-[3-(4-Chloro-phenyl)-piperazin-1-yl]-6,7-dimethoxy-isoquinoline-4-carbonitrile] displayed an IC50 of 700 nM.

As to `COc1cc2c(N3CCNC(c4ccc(C)cc4)C3)nc(C)c(C#N)c2cc1OC` (centres unmarked) [Compound 31, 6,7-Dimethoxy-3-methyl-1-(3-p-tolyl-piperazin-1-yl)-isoquinoline-4-carbonitrile], it took 1000 nM to reach half-maximal inhibition (IC50).

Regarding `COc1ccc(C2CN(c3nc(C)c(C#N)c4cc(OC)c(OC)cc34)CCN2)cc1` (centres unmarked) [Compound 32, 6,7-Dimethoxy-1-[3-(4-methoxy-phenyl)-piperazin-1-yl]-3-methyl-isoquinoline-4-carbonitrile], the IC50 came out at 290 nM.

Values taken from patent US7858620B2, “Cyanoisoquinoline” (H. Lundbeck A/S, priority 2007, dated 2010).
